Like-named read-outs stand apart in the source and are kept apart here.
Assays:
[1] = test system: PAF-induced hyperalgesia; experiment: Platelet Activating Factor-Induced Hyperalgesia in the Rat; format: in vivo, rat (female Sprague-Dawley); settings: for effect in the PAF-induced hyperalgesia assay (in words): pain response to PAF, rat; for % Analgesia (percentage of animals with vocalization threshold greater than 200 of vehicle-treated controls): Table 1, 30 min before PAF, readings 3 hours after PAF
Method: In this assay, which is sensitive to inhibition by lipoxygenase inhibitors, but not cyclooxygenase inhibitors, compounds of formula (I) reduced the pain response to PAF (Table 1).
Groups of 10 female Sprague-Dawley rats, 35-50 g (Taconic Farms), were fasted overnight prior to testing. Hyperalgesia was induced in the rat by the subplantar injection of 1 ug PAF in physiological saline. Pain threshold was measured by applying pressure to the plantar surface of the hindpaw by means of a compressed air driven piston with a 2 mm tip. Vocalization thresholds were obtained 3 hr after injection of the PAF. Compounds, prepared at various doses in 1% methylcellulose suspension, were administered perorally 30 min before PAF. For each drug treatment group, animals with response pressures in the inflamed paw of 200% of control was considered to be analgesic. The mean vocalization threshold for each group was also calculated.

[2] = biological target: T1, RBL-1 cell 5-lipoxygenase (Rattus norvegicus, UniProt P12527); experiment: Inhibition of RBL-1 Cell 5-Lipoxygenase (5-HETE formation); format: biochemical; settings: read-out: Percent Inhibition
T1 construct: measured in vitro against the RBL-1 cell 5-lipoxygenase; endogenous in cells; host or cells: RBL-1 cells
T1 sequence (P12527 1-673): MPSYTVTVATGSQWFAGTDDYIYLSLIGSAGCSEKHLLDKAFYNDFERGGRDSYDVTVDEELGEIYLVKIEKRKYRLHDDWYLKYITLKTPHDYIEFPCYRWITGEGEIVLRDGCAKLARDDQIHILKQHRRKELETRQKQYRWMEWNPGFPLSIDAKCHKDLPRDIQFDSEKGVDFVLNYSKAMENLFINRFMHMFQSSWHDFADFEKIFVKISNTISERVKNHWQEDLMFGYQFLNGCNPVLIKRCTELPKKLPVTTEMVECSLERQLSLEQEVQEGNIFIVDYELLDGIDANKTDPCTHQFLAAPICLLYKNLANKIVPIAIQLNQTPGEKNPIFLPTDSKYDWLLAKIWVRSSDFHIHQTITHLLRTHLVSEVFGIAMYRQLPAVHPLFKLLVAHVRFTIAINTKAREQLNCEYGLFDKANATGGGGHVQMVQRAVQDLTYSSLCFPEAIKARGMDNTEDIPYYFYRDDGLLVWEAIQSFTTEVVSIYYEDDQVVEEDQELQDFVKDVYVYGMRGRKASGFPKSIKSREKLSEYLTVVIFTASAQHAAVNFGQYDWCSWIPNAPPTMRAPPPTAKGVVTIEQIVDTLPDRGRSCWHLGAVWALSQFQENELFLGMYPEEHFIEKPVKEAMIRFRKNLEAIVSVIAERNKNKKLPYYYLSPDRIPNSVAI
Method: The ability of the compound of Formula I, e.g., Compound A, to inhibit leukotriene biosynthesis was also measured in vitro against the RBL-1 cell 5-lipoxygenase. The protocol for measuring inhibition of 5-HETE formation has been published in R. W. Egan et al., "Advances in Prostaglandin, Thromboxane, and leukotriene Research", Vol. 11 (edited by B. Samuelsson et al., Raven Press, N.Y., 1983), p. 151.

[3] = test system: microsomal ram vesicular gland cyclooxygenase; experiment: Inhibition of microsomal ram vesicular gland cyclooxygenase; format: biochemical
Description: The protocol for measuring inhibition of this prostaglandin-producing enzyme has been published.

[4] = Rattus norvegicus, po, 3 h, read-out: % Rats Exhibiting Analgesia
[5] = Rattus norvegicus, Platelet, po, 3 h, Table 2, 30 mg/kg p.o., read-out: % Rats Exhibiting Analgesia

SMILES	responders at 30 mg/kg [1, 5] [%]	effect in the PAF-induced hyperalgesia assay (in words) [1]	also measured
CC(=O)Oc1ccccc1C(=O)O [Aspirin]	–	–	responders at 100 mg/kg [1, 4]: 10%
CC(C(=O)O)c1ccc2oc(-c3ccc(Cl)cc3)nc2c1 (centres unmarked) [Benoxaprofen]	10	completely ineffective	–
CSc1ccc2sc(C(=O)Nc3cccc(Cl)c3)c(O)c2c1 [Compound A, --N--(3chlorophenyl)-3-hydroxy-5-(methylthio)benzo[b]thiophene2-carbxamide]	90	–	inhibition at 0.5 µg/mL ([2]; 0.5 ug/ml): 48%; inhibition at 1 µg/mL ([2]; 1 ug/ml): 58%; inhibition at 2 µg/mL ([2]; 2 ug/ml): 74%; inhibition at 10 µg/mL ([2]; 10 ug/ml): 83%; Percent Inhibition [3]: 95%; % Analgesia (percentage of animals with vocalization threshold greater than 200 of vehicle-treated controls) ([1]; 30 mg/kg p.o.): 90%
CSc1ccc2sc(C(=O)NCc3ccccc3)c(O)c2c1 [Compound B, 3Hydroxy-5-(methylthio)---N--(phenylmethyl)benzo[b]thiophene2-carboxmide]	–	–	% Analgesia (percentage of animals with vocalization threshold greater than 200 of vehicle-treated controls) ([1]; 30 mg/kg p.o.): 80%
O=C(O)c1cc(-c2ccc(F)cc2F)ccc1O [Diflunisal]	10	–	–
CC(C)Cc1ccc(C(C)C(=O)O)cc1 (centres unmarked) [Ibuprofen]	10	completely ineffective	–
COc1ccc2c(c1)c(CC(=O)O)c(C)n2C(=O)c1ccc(Cl)cc1 [Indomethacin]	–	completely ineffective	responders at 10 mg/kg [1, 4]: 10%
COc1ccc2cc([C@H](C)C(=O)O)ccc2c1 [Naproxen]	–	–	responders at 30 mg/kg [1, 4]: 10%
CN1C(C(=O)Nc2ccccn2)=C(O)c2ccccc2S1(=O)=O [Piroxicam]	0	completely ineffective	–
CC1=C(CC(=O)O)c2cc(F)ccc2/C1=C\c1ccc([S+](C)[O-])cc1 (centres unmarked) [Sulindac]	10	–	–

From patent US4800211A, “5-methylthio-3-hydroxybenzo [b]thiophene-2-carboxamide derivatives as cyclooxygenase and lipoxygenase inhibitors” (Merck & Co., Inc., priority 1986, dated 1989)
